# Test results reported in PubChem BioAssay (NCI).
#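 Exposure lasted 48 hours, with cells grown in 96-well plates and compounds tested at five concentrations. GI50: concentration for 50% inhibition of growth. TGI is the concentration that stops growth completely.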
# What was measured:
# Assay in all cases: inhibition of tumour cell growth, NCI panel, 48 h
# A498 renal = tested on: A498 renal
# CCRF-CEM leukemia = tested on: CCRF-CEM leukemia
# COLO 205 colon = tested on: COLO 205 colon
# IGROV1 ovarian = tested on: IGROV1 ovarian
# NCI-H226 lung = tested on: NCI-H226 lung
# NCI-H23 lung = tested on: NCI-H23 lung
# NCI/ADR-RES ovarian = tested on: NCI/ADR-RES ovarian
# SF-295 CNS = tested on: SF-295 CNS
# UACC-257 melanoma = tested on: UACC-257 melanoma
# MALME-3M melanoma = tested on: MALME-3M melanoma
Structure (SMILES),TGI (A498 renal) [µM],TGI (CCRF-CEM leukemia) [µM],TGI (COLO 205 colon),TGI (IGROV1 ovarian) [µM],TGI (NCI-H226 lung) [µM],TGI (NCI-H23 lung) [µM],TGI (NCI/ADR-RES ovarian) [µM],TGI (SF-295 CNS) [µM],TGI (UACC-257 melanoma) [µM],TGI (MALME-3M melanoma) [µM],GI50 (A498 renal) [µM],GI50 (CCRF-CEM leukemia) [µM],GI50 (COLO 205 colon) [µM],GI50 (IGROV1 ovarian) [µM],GI50 (MALME-3M melanoma) [µM],GI50 (NCI-H226 lung) [µM],GI50 (NCI-H23 lung) [µM],GI50 (NCI/ADR-RES ovarian) [µM],GI50 (SF-295 CNS) [µM],GI50 (UACC-257 melanoma) [µM]
O=c1c(-c2ccccc2)c[nH]c2cc([N+](=O)[O-])c(/C(Cl)=C/c3ccccc3)cc12,35.4,20.3,> 38.2 µM,> 38.6,34,> 44.5,25.5,26.5,97.3,–,–,–,–,–,–,–,–,–,–,–
C[Si](C)(C)C#C[I+]c1ccccc1,> 100,75.8,32.9 µM,> 100,> 100,> 100,–,> 100,> 100,> 100,–,–,–,–,–,–,–,–,–,–
O=C(O)CCCN1CCCCC1,> 100,> 100,–,> 100,> 100,> 100,> 100,> 100,> 100,> 100,–,–,–,–,–,–,–,–,–,–
Cc1c2cc[n+](C)cc2c(C)c2c1[nH]c1ccc(O)cc12,99.4,> 92.6,> 91.9 µM,> 100,16.6,63.4,> 100,64.7,> 90.6,26.4,–,–,–,–,–,–,–,–,–,–
CN1CCN(c2ccc3nc(-c4ccc(OCCCN5C(=O)c6cccc7cccc(c67)C5=O)cc4)[nH]c3c2)CC1,50.4,7.48,> 100 µM,66.1,51.2,55.9,4.7,89.2,51.8,> 30.8,24.1,2.62,4.53,21.8,4.43,19.8,8.1,2.09,14.5,24.8
CC(=O)O[C@H]1C(=O)[C@]2(C)[C@@H](OC(=O)OCC(O)CO)C[C@H]3OC[C@@]3(OC(C)=O)[C@H]2[C@H](OC(=O)c2ccccc2)[C@]2(O)C[C@H](OC(=O)[C@H](O)[C@@H](NC(=O)c3ccccc3)c3ccccc3)C(C)=C1C2(C)C (stereo partly drawn),–,31,0.683 µM,> 57.7,–,> 43.2,4.94,–,22.2,–,–,–,–,–,–,–,–,–,–,–
COc1cc(-c2ccc(-c3ccc(C(=N)N)s3)s2)cc(OC)c1OC,5.83,10.4,–,–,–,8.04,12.9,3.39,4.02,3.53,2.25,3.42,–,–,1.74,–,2.61,3.44,1.78,2.22
Cc1c2cc[n+](C)cc2c(COC2OC(CO)C(O)C2O)c2c3ccccc3n(C)c12 (stereo not drawn),> 100,> 100,> 100 µM,> 100,> 94.1,> 100,> 100,> 100,> 100,98.4,–,–,–,–,–,–,–,–,–,–
NC(=O)c1cc2ccccc2c(N=Nc2ccccc2)c1O,> 100,> 100,> 100 µM,> 100,> 100,> 100,> 100,> 100,> 100,> 100,–,–,–,–,–,–,–,–,–,–
O=C(CCN1CCCC1)Nc1ccc2c(NCCCCc3ccccc3)c3ccccc3nc2c1,2.82,–,1.87 µM,–,2.49,2.4,59.4,2.88,3.5,3.26,1.43,–,0.453,–,1.72,1.15,1.1,11.3,1.5,1.8
CCCCN(CCCC)CC(=O)c1ccc2cc(Cl)c3ccccc3c2c1,46.9,> 100,34.1 µM,62,89.5,> 100,> 100,> 100,98.9,> 100,–,–,–,–,–,–,–,–,–,–
COc1cccc2c1C(=O)c1c(O)c3c(c(O)c1C2=O)C[C@@](O)(C(C)=O)C[C@@H]3OC1CC(N)C(O)C(C)O1 (stereo partly drawn),–,–,1.28 µM [middle of 6 runs],–,–,–,–,–,–,–,–,–,–,< 0.0374,–,–,< 0.0235,–,< 0.0147,0.0685
CC(C)(C)CC(C)(C)Cc1ccc(OCCOCC[N+](C)(C)Cc2ccccc2)cc1,9.38,3.72,–,2.86,6.72,3.8,58.6,15.5,3.18,–,2.08,1.31,–,1.33,–,1.79,1.45,21.5,3.62,1.51
CCC1=C(C)C2=NC1=CC1=NC(=C(CC)/C1=C/O)C=C1N=C3C(=C1C)C(=O)C(C(=O)OC)C3=C1NC(=C2)C(C)C1CCC(=O)OC (stereo not drawn),> 100,> 100,> 100 µM,> 100,> 100,> 100,–,> 100,> 100,> 100,–,–,–,–,–,–,–,–,–,–
N#Cc1ccc(Nc2nc3nc[nH]c3c(=O)[nH]2)cc1,> 100,> 100,> 100 µM,> 100,> 100,> 100,> 100,> 100,> 100,> 100,–,–,–,–,–,–,–,–,–,–
Cc1cc(SCC(=O)c2ccc(Br)cc2)cc(C)[o+]1,81.6,44,83.7 µM,> 100,95.5,> 100,88.3,65.6,65.9,97.9,–,–,–,–,–,–,–,–,–,–
